Our source for the activation and lipogénèse values is patent EP1366743A1, “Use of a derivative of 7-oxydated DHEA for treating dry skin” (L'OREAL, priority 2002, dated 2003).

The experiment deals with sébocytes humains immortalisés en culture, issus de la lignée SZ95. As to the kind of experiment: Lipogenesis: total lipids produced by cultured immortalised human sebocytes (Nile Red fluorescence). It is filed as cell-based. The note with it: for activation at 10 µM / activation at 1 µM: 48 h, total lipids, variation versus control, 2 days of treatment, confluent SZ95 sebocytes; for activation at 10 µM: 10^-5 M in 0,1% DMSO, read-out: % de variation à 10^-5 M; for activation at 1 µM: 10^-6 M in 0,1% DMSO, read-out: % de variation à 10^-6 M. From the text:
La 7α-OH DHEA et la 3-O-acétyl 7-benzoyloxy DHEA ont été testées sur un modèle de sébocytes humains immortalisés en culture, issus de la lignée SZ95 décrite dans Zouboulis, C.C., Seltmann, H., Neitzel, H. & Orfanos, C.E., Establishment and Characterization of an Immortalized Human Sebaceous Gland Cell Line, J. Invest. Dermatol., 113, 1011-1020 (1999).
Le test a consisté à mesurer la quantité de lipides produite par les sébocytes de la lignée (à confluence), en présence ou non d'agents actifs dilués dans le DMSO à 10^-5 M et 10^-6 M, de telle sorte que la quantité finale de DMSO dans le milieu de culture soit de 0,1%. Après 2 jours de traitement, les cellules adhérentes sont traitées par du Rouge de Nile (1µg/ml). Le contenu en lipides est ensuite quantifié par mesure de la fluorescence du colorant (deux couples d'excitation/émission : 485-540nm pour les lipides neutres et 540-620 nm pour les lipides non neutres). Les résultats sont donnés pour les lipides totaux (combinaison des deux mesures).
L'expérience est réalisée en sixplicate (produits dosés) ou dodeplicate (témoin) en plaque de 96 puits.
Le Tableau ci-dessous rassemble les résultats obtenus, en pourcentage de variation par rapport au témoin, ainsi que les coefficients p fournis par le test de Student et qui reflètent la significativité des mesures.

On to `CC(=O)O[C@H]1CC[C@@]2(C)C(=CC(OC(=O)c3ccccc3)[C@@H]3[C@@H]2CC[C@]2(C)C(=O)CC[C@@H]32)C1` (some centres unmarked) [3-O-acétyl 7-benzoyloxy DHEA], for which the activation at 10 µM came to 15% and the activation at 1 µM was found to be 15%. The lipogénèse result (result in words, 10^-6 M) is “efficace”.

With `C[C@]12CC[C@H](O)CC1=C[C@@H](O)[C@@H]1[C@@H]2CC[C@]2(C)C(=O)CC[C@@H]12` [7α-OH DHEA], the activation at 10 µM turned out to be 15% and the activation at 1 µM turned out to be 6%.
